{
  "source": "patent US20180085362A1",
  "about": "“COMBINATION OF PHOSPHATIDYLINOSITOL-3-KINASE (PI3K) INHIBITOR AND A MTOR INHIBITOR” (Novartis AG, priority 2011, published 2018)",
  "key": {"[1]": {"system": "T47-D human breast cancer cell line", "experiment": "CellTiter-Glo cell proliferation assay, dose matrix, T47-D", "format": "cell-based", "details": "72 hrs; for Amax (maximum fraction of inhibition): fraction growth inhibition compare to DMSO control, everolimus 1 nM-27 nM, Compound I 4 nM-3 μM", "procedure": "The human breast cancer cell line T47-D is purchased from American Type Cell Collection. The T47-D human breast cancer cell line includes PIK3CA mutation.\n(§1) Cell viability is determined by measuring cellular ATP content using the CellTiter-Glo® Luminescent Cell Viability Assay (Promega #G7573) according to manufacturer's protocol.\n(§2) Single agent dose responding curves, IC50, IC90, and the Synergy are all analyzed using Chalice software (CombinatoRx, Cambridge Mass.). Synergy is calculated by comparing a combination's response to those of its single agents, against the drug-with-itself dose-additive reference model. Deviations from dose additivity can be assessed visually on an Isobologram or numerically with a Combination Index. Excess inhibition compare to additivity can also be plotted as a full dose-matrix chart to capture where the synergies occur. To quantify the overall strength of combination effects, a volume score VHSA=ΣX,Y InfX InfY (Idata−IHSA) is also calculated between the data and the highest-single-agent surface, normalized for single agent dilution factors fX,fY.\nThe experiment setup is identical to the experiment procedure described above for the SKBR-3 model (FIG. 15)."}, "[2]": {"system": "SKBR-3 human breast cancer cell line", "experiment": "CellTiter-Glo cell proliferation assay, dose matrix, SKBR-3", "format": "cell-based", "details": "SKBR-3, 72 hrs; for Amax, the maximum fraction of inhibition: fraction growth inhibition compare to DMSO control, everolimus 1 nM-27 nM, Compound I 4 nM-3 μM", "description": "The human breast cancer cell line SKBR-3 is purchased from American Type Cell Collection. The SKBR-3 human breast cancer cell line is HER2 amplified.\nSingle agent dose responding curves, IC50, IC90, and the Synergy are all analyzed using Chalice software (CombinatoRx, Cambridge Mass.). Synergy is calculated by comparing a combination's response to those of its single agents, against the drug-with-itself dose-additive reference model. Deviations from dose additivity can be assessed visually on an Isobologram or numerically with a Combination Index. Excess inhibition compare to additivity can also be plotted as a full dose-matrix chart to capture where the synergies occur. To quantify the overall strength of combination effects, a volume score VHSA=ΣX,Y, InfX InfY (Idata−IHSA) is also calculated between the data and the highest-single-agent surface, normalized for single agent dilution factors fX,fY.\nThe cells are plated at 3000 cells per well in 384 well plates in triplicates, and treated with compound for 72 hrs before the measurement (FIG. 13)."}, "[3]": {"system": "BT-474 human breast cancer cell line", "experiment": "CellTiter-Glo cell proliferation assay, dose matrix, BT-474", "format": "cell-based", "details": "BT-474, 72 hrs; for Amax (maximum fraction of inhibition): fraction growth inhibition compare to DMSO control, everolimus 1 nM-27 nM, Compound I 4 nM-3 μM", "procedure": "as §1, §2\nThe experiment setup is identical to the experiment procedure described above for the SKBR-3 model (FIG. 14)."}, "[4]": {"experiment": "Toxicity (body weight, deaths) in DU145 xenograft study", "format": "in vivo, nude mice (nu/nu)", "set-up": "key to Mean BW Nadir: — indicates no decrease in mean body weight is observed", "details": "for Deaths (TR/NTR): ten mice", "procedure": "Paclitaxel is administered via bolus tail veil injections (i.v.) once daily on alternate days for five doses (qod×5). The dosing volume, 10 mL/kg ( )0.2 mL/20 g mouse), is scaled to the weight to each animal as determined on the day of dosing, except on weekends, when the Friday BWs are carried forward.\n11 groups of nude mice (n=10 per group) are treated as follows: Group 1 mice receives Vehicle 1 and Vehicle 2, and served as controls for all analyses. […] Groups 5-7 receives monotherapies with 2.5, 5, and 10 mg/kg RAD001, respectively. […] Group 11 receives 25 mg/kg paclitaxel.\nAnimals are weighed on Days 1-5, and on each treatment day (except weekend days) until the end of the study. Acceptable toxicity for the maximum tolerated dose is defined as a group mean BW loss of less than 15% during the test, and not more than one treatment-related (TR) death among ten animals. Any animal with BW losses exceeding 20% for one measurement, is to be euthanized and classified as a TR death, unless it is the first death in the group. Non-treatment-related (NTR) deaths are to be categorized as NTRa (due to accident or error), NTRu (due to unknown causes), or NTRm (necropsy-confirmed tumor dissemination by invasion and/or metastasis)."}, "[5]": {"system": "ZR-75-1 human breast cancer cell line", "experiment": "CellTiter-Glo cell proliferation assay, dose matrix, ZR-75-1", "format": "cell-based", "details": "for Amax (maximum fraction of inhibition): ZR-75-1, 72 hrs, fraction growth inhibition compare to DMSO control, everolimus 1 nM-27 nM, Compound I 4 nM-3 μM"}, "[6]": {"system": "DU145 human prostate carcinoma", "experiment": "Tumor growth inhibition, DU145 human prostate carcinoma nude mouse xenograft model", "details": "for Mean volume Change: Day 1 to Day 21; for T/C: Day 21"}, "[7]": {"details": "Group 5: RAD001 2.5 mg/kg p.o. qd×21"}, "[8]": {"details": "Group 6: RAD001 5 mg/kg p.o. qd×21"}, "[9]": {"details": "Group 7: RAD001 10 mg/kg p.o. qd×21"}, "[10]": {"details": "Group 11: Paclitaxel 25 mg/kg i.v. qod×5"}, "[11]": {"details": "single agent, read-out: IC50 (cell growth)"}, "[12]": {"details": "Group 2: Compound I 12.5 mg/kg p.o. qd×21"}, "[13]": {"details": "Group 3: Compound I 25 mg/kg p.o. qd×21"}, "[14]": {"details": "Group 4: Compound I 50 mg/kg p.o. qd×21"}},
  "note": "pIC50: −log10 of the molar value.",
  "data": [
    {"smiles": "CO[C@H]1C[C@@H]2CC[C@@H](C)[C@@](O)(O2)C(=O)C(=O)N2CCCC[C@H]2C(=O)O[C@H]([C@H](C)C[C@@H]2CC[C@@H](OCCO)[C@H](OC)C2)CC(=O)[C@H](C)/C=C(\\C)[C@@H](O)[C@@H](OC)C(=O)[C@H](C)C[C@H](C)/C=C/C=C/C=C/1C", "note": "[everolimus (RAD001), (1R,9S,12S,15R,16E,18R,19R, 21R,23S,24E,26E,28E,30S,32S,35R)-1,18-dihydroxy-12-{(1R)-2-[(1 S,3R,4R)-4-(2-hydroxyethoxy)-3-methoxycyclohexyl]-1-methylethyl}-19,30-dimethoxy-15,17,21,23,29,35-hexamethyl-11,36-dioxa-4-aza-tricyclo[30.3.1.04,9] hexatriaconta-16,24, 26,28-tetraene-2,3,10,14,20-pentaone]", "values": [
      {"measurement": "Amax (maximum fraction of inhibition)", "setting": "[1]", "value": 0.37},
      {"measurement": "IC50 (cell growth)", "setting": "[1]; single agent", "value": "never achieved an IC50"},
      {"measurement": "Amax, the maximum fraction of inhibition", "setting": "[2]", "value": 0.32},
      {"measurement": "IC50 (cell proliferation)", "setting": "[2]; single agent, 1 nM-27 nM", "value": "never achieved an IC50"},
      {"measurement": "Amax (maximum fraction of inhibition)", "setting": "[3]", "value": 0.36},
      {"measurement": "IC50 (cell growth)", "setting": "[3]; single agent", "value": "never achieves an IC50"},
      {"measurement": "Mean BW Nadir", "setting": "[4]; [7]", "value": "—"},
      {"measurement": "Deaths (TR/NTR)", "setting": "[4]; [7]", "value": "0/0"},
      {"measurement": "Mean BW Nadir", "setting": "[4]; [8]", "value": "—"},
      {"measurement": "Deaths (TR/NTR)", "setting": "[4]; [8]", "value": "0/0"},
      {"measurement": "Mean BW Nadir", "setting": "[4]; [9]", "value": "—"},
      {"measurement": "Deaths (TR/NTR)", "setting": "[4]; [9]", "value": "0/0"},
      {"measurement": "pIC50", "setting": "[5]; Homo sapiens, ZR-75-1, 72 h, read-out: IC50 (cell proliferation)", "value": "~7.82"},
      {"measurement": "Amax (maximum fraction of inhibition)", "setting": "[5]", "value": 0.55},
      {"measurement": "Mean volume Change", "setting": "[6]; [7]", "value": 424, "unit": "mm^3"},
      {"measurement": "T/C", "setting": "[6]; [7]", "value": "(T/C = 54%)"},
      {"measurement": "Statistical Signif. vs. G1", "setting": "[6]; Group 5: RAD001 2.5 mg/kg, Kruskal-Wallis with Dunn's test", "value": "ns (vs. G1)"},
      {"measurement": "Mean volume Change", "setting": "[6]; [8]", "value": 269, "unit": "mm^3"},
      {"measurement": "T/C", "setting": "[6]; [8]", "value": "(T/C = 43%)"},
      {"measurement": "Statistical Signif. vs. G1", "setting": "[6]; Group 6: RAD001 5 mg/kg, Kruskal-Wallis with Dunn's test", "value": "* (vs. G1) (* = P < 0.05)"},
      {"measurement": "Mean volume Change", "setting": "[6]; [9]", "value": 341, "unit": "mm^3"},
      {"measurement": "T/C", "setting": "[6]; [9]", "value": "(T/C = 43%)"},
      {"measurement": "Statistical Signif. vs. G1", "setting": "[6]; Group 7: RAD001 10 mg/kg, Kruskal-Wallis with Dunn's test", "value": "ns (vs. G1)"}
    ]},
    {"smiles": "CC(=O)O[C@H]1C(=O)[C@@]2(C)[C@H]([C@H](OC(=O)c3ccccc3)[C@]3(O)C[C@H](OC(=O)[C@H](O)[C@@H](NC(=O)c4ccccc4)c4ccccc4)C(C)=C1C3(C)C)[C@]1(OC(C)=O)CO[C@@H]1C[C@@H]2O", "note": "[Paclitaxel]", "values": [
      {"measurement": "Mean BW Nadir", "setting": "[4]; Group 11: Paclitaxel 25 mg/kg i.v. qod×5, % change from Day 1, nadir Day 12", "value": "−1.9", "unit": "%"},
      {"measurement": "Deaths (TR/NTR)", "setting": "[4]; [10]", "value": "0/1"},
      {"measurement": "Mean volume Change", "setting": "[6]; [10]", "value": 898, "unit": "mm^3"},
      {"measurement": "T/C", "setting": "[6]; [10]", "value": "(TIC = 115%)"},
      {"measurement": "Statistical Signif. vs. G1", "setting": "[6]; Group 11: Paclitaxel 25 mg/kg, Mann-Witney U test", "value": "ns (using"}
    ]},
    {"smiles": "Cc1nc(NC(=O)N2CCC[C@H]2C(N)=O)sc1-c1ccnc(C(C)(C)C(F)(F)F)c1", "note": "[Compound I, (S)-Pyrrolidine-1,2-dicarboxylic acid 2-amide 1-({4-methyl-5-[2-(2,2,2-trifluoro-1,1-dimethyl-ethyl)-pyridin-4-yl]-thiazol-2-yl}-amide)]", "values": [
      {"measurement": "Amax (maximum fraction of inhibition)", "setting": "[1]", "value": "around 0.67"},
      {"measurement": "pIC50", "setting": "[1]; [11]", "value": "~6.48"},
      {"measurement": "Amax, the maximum fraction of inhibition", "setting": "[2]", "value": 0.40},
      {"measurement": "Amax (maximum fraction of inhibition)", "setting": "[3]", "value": "around 0.53"},
      {"measurement": "pIC50", "setting": "[3]; [11]", "value": "~5.52"},
      {"measurement": "Mean BW Nadir", "setting": "[4]; [12]", "value": "—"},
      {"measurement": "Deaths (TR/NTR)", "setting": "[4]; [12]", "value": "0/0"},
      {"measurement": "Mean BW Nadir", "setting": "[4]; [13]", "value": "—"},
      {"measurement": "Deaths (TR/NTR)", "setting": "[4]; [13]", "value": "0/0"},
      {"measurement": "Mean BW Nadir", "setting": "[4]; Group 4: Compound I 50 mg/kg p.o. qd×21, % change from Day 1, nadir Day 8", "value": "−8.1", "unit": "%"},
      {"measurement": "Deaths (TR/NTR)", "setting": "[4]; [14]", "value": "3/0"},
      {"measurement": "Amax (maximum fraction of inhibition)", "setting": "[5]", "value": "around 0.16"},
      {"measurement": "Mean volume Change", "setting": "[6]; [12]", "value": 501, "unit": "mm^3"},
      {"measurement": "T/C", "setting": "[6]; [12]", "value": "(T/C = 64%)"},
      {"measurement": "Statistical Signif. vs. G1", "setting": "[6]; Group 2: Compound I 12.5 mg/kg, Kruskal-Wallis with Dunn's test", "value": "ns (vs. G1)"},
      {"measurement": "Mean volume Change", "setting": "[6]; [13]", "value": 129, "unit": "mm^3"},
      {"measurement": "Statistical Signif. vs. G1", "setting": "[6]; Group 3: Compound I 25 mg/kg, Kruskal-Wallis with Dunn's test", "value": "*** (vs. G1) (*** = P < 0.001)"},
      {"measurement": "Mean volume Change", "setting": "[6]; [14]", "value": 150, "unit": "mm^3"},
      {"measurement": "T/C", "setting": "[6]; [14]", "value": "(T/C = 19%)"}
    ]}
  ]
}
